Measurements: patent publication EP4806898A1, “HETEROARYL DERIVATIVE COMPOUND AND USE THEREOF” (Voronoi Inc., priority 2023, dated 2025)

How the values were obtained:
[1] = target: T1, recombinant USP1 protein (Homo sapiens, UniProt O94782, DEL125-138/DEL229-408/DEL608-737); assay: Binding affinity to recombinant USP1 protein by differential scanning fluorimetry; conditions: compound 100 µM; 0.03 mg/mL USP1 (Δ1-66, Δ125-138, Δ229-408, Δ608-737); Tm with compound minus Tm with DMSO; read-out: ΔTm (°C)
T1 sequence (O94782 with tags, fused parts or gaps DEL125-138/DEL229-408/DEL608-737): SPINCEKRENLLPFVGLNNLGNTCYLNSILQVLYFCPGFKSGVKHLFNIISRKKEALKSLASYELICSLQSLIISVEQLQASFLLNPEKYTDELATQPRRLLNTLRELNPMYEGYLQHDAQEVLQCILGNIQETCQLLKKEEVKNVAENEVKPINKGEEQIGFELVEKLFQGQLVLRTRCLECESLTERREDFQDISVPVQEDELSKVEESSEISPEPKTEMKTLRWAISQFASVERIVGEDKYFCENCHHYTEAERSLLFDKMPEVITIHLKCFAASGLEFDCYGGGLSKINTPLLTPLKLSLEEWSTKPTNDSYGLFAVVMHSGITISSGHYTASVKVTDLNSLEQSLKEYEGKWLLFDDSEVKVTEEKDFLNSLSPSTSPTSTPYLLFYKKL
How it was run: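 Thermal shift readout: ΔTm is the compound-well melting temperature less the DMSO-well value, measured by real-time PCR. Compounds tested at 100 µM final against 0.03 mg/mL truncated USP1 (Δ1-66, Δ125-138, Δ229-408, Δ608-737) in pH 8.0 Tris buffer containing 150 mM NaCl, 2% glycerol, 1 mM DTT.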

[2] = system: UWB1.289 cells; assay: Cell proliferation inhibitory activity in BRCA1/2-mutant or HRD-positive cells (Cell Titer-Glo); assay type: cell-based; conditions: UWB1289; UWB1.289 cells, 144 hours after compound treatment, Cell Titer-Glo, 1.5 nM to 10 µM; read-out: GI50 UWB1.289 BRCA1 mut
How it was run: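 GI50 from CellTiter-Glo luminescence after 144 h compound exposure at 37 °C. Cells seeded at 1,000 per well in MEBM/RPMI1640 mix 16–24 h beforehand; […] from 10 µM down to 1.5 nM final (3-fold steps).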

For `CNC(=O)c1cc2cnc(-c3c(OC4CC4)ncnc3C3CC3)nc2n1Cc1ccc(-c2nc(C(F)(F)F)cn2C)cc1` [Example 184, 2-(4-cyclopropyl-6-cyclopropoxypyrimidin-5-yl)-N-methyl-7-(4-(1-methyl-4-(trifluoromethyl)-1H-imidazol-2-yl)benzyl)-7H-pyrrolo[2,3-d]pyrimidine-6-carboxamide], the ΔTm at 100 µM [1] was over 5 °C and the GI50 [2] was under 100 nM.
`COc1ncnc(C2CC2)c1-c1ncc2cc(C(=O)NC3CCN(C)CC3(F)F)n(Cc3ccc(-c4nc(C(F)(F)F)cn4C)cc3)c2n1` (stereo not drawn) [Example 185, 2-(4-cyclopropyl-6-methoxypyrimidin-5-yl)-N-(3,3-difluoro-1-methylpiperidin-4-yl)-7-(4-(1-methyl-4-(trifluoromethyl)-1H-imidazol-2-yl)benzyl)-7H-pyrrolo[2,3-d]pyrimidine-6-carboxamide] showed a ΔTm at 100 µM [1] of over 5 °C and a GI50 [2] of under 100 nM.
`CNC(=O)c1cc2cnc(-c3c(Cl)cnn3C)nc2n1Cc1ccc(-c2nc(C(F)(F)F)cn2C)cc1` [Example 186, 2-(4-chloro-1-methyl-1H-pyrazol-5-yl)-N-methyl-7-(4-(1-methyl-4-(trifluoromethyl)-1H-imidazol-2-yl)benzyl)-7H-pyrrolo[2,3-d]pyrimidine-6-carboxamide] gave a ΔTm at 100 µM [1] of over 5 °C and a GI50 [2] of under 100 nM.
`CNC(=O)c1cc2cnc(-c3c(OC)ncnc3C3CC3)nc2n1Cc1ccc(-c2nc(C(F)(F)F)cn2[C@@H]2CCN(C)C[C@H]2F)cc1` [Example 187, 2-(4-cyclopropyl-6-methoxypyrimidin-5-yl)-7-(4-(1-((3R,4R)-3-fluoro-1-methylpiperidin-4-yl)-4-(trifluoromethyl)-1H-imidazol-2-yl)benzyl)-N-methyl-7H-pyrrolo[2,3-d]pyrimidine-6-carboxamide] was tested, and the ΔTm at 100 µM [1] was over 5 °C and the GI50 [2] was under 100 nM.
Compound `CNC(=O)c1cc2cnc(-c3c(OC)ncnc3C3CC3)nc2n1Cc1ccc(-n2nc(C(C)(C)O)cc2C)cc1` [Example 188, 2-(4-cyclopropyl-6-methoxypyrimidin-5-yl)-7-(4-(3-(2-hydroxypropan-2-yl)-5-methyl-1H-pyrazol-1-yl)benzyl)-N-methyl-7H-pyrrolo[2,3-d]pyrimidine-6-carboxamide] has a ΔTm at 100 µM [1] of over 5 °C and a GI50 [2] of 100 to 500 nM.
In the case of `CNC(=O)c1cc2cnc(-c3c(OC)ncnc3C3CC3)nc2n1Cc1ccc(-c2nc(C(F)(F)F)cn2[C@H]2CCN(C)C[C@@H]2F)cc1` [Example 189, 2-(4-cyclopropyl-6-methoxypyrimidin-5-yl)-7-(4-(1-((3S,4S)-3-fluoro-1-methylpiperidin-4-yl)-4-(trifluoromethyl)-1H-imidazol-2-yl)benzyl) -N-methyl-7H-pyrrolo [2,3-d]pyrimidine-6-carboxamide], the ΔTm at 100 µM [1] is reported as over 5 °C and the GI50 [2] is reported as under 100 nM.
With `COc1ncnc(C2CC2)c1-c1ncc2cc(C(=O)NC[C@@H](O)C(C)C)n(Cc3ccc(-c4nc(C(F)(F)F)cn4C)cc3)c2n1` [Example 190, (S)-2-(4-cyclopropyl-6-methoxypyrimidin-5-yl)-N-(2-hydroxy-3-methylbutyl)-7-(4-(1-methyl-4-(trifluoromethyl)-1H-imidazol-2-yl)benzyl)-7H-pyrrolo[2,3-d]pyrimidine-6-carboxamide] the ΔTm at 100 µM [1] was over 5 °C and the GI50 [2] was under 100 nM.
In the case of `COc1ncnc(C2CC2)c1-c1ncc2cc(C(=O)N[C@@H](C)CCO)n(Cc3ccc(-c4nc(C(F)(F)F)cn4C)cc3)c2n1` [Example 191, (S)-2-(4-cyclopropyl-6-methoxypyrimidin-5-yl)-N-(4-hydroxybutan-2-yl)-7-(4-(1-methyl-4-(trifluoromethyl)-1H-imidazol-2-yl)benzyl)-7H-pyrrolo[2,3-d]pyrimidine-6-carboxamide], the ΔTm at 100 µM [1] is reported as over 5 °C and the GI50 [2] is reported as under 100 nM.
In the case of `CNC(=O)c1cc2cnc(-c3cccc4c3N(C)CC4)nc2n1Cc1ccc(-c2nc(C(F)(F)F)cn2C)cc1` [Example 193, N-methyl-7-(4-(1-methyl-4-(trifluoromethyl)-1H-imidazol-2-yl)benzyl)-2-(1-methylindolin-7-yl)-7H-pyrrolo[2,3-d]pyrimidine-6-carboxamide], the ΔTm at 100 µM [1] is reported as under 5 °C and the GI50 [2] is reported as under 100 nM.
